Laboratory results from patent US20260116921A1, “PEPTIDE INHIBITORS OF INTERLEUKIN-23 RECEPTOR AND THEIR USE TO TREAT INFLAMMATORY DISEASES” (priority 2018, published 2026).
Numbered stars: 1 amine (or outer) side, 2 acyl side, 3 side chain; on linkers, the order of the positions; unused ones are H or OH. Bridge positions count the residues as written; N and C are the ends. Square brackets hold non-standard residues; d marks the D form. Peptide text beside a SMILES is read from it. Trp(7-Me) = Cc1cccc2c(C[C@H](N)C(=O)O)c[nH]c12; Abu(4-yl) = O=C([C@H](CC[*:3])N[*:1])[*:2]; 2Nal = N[C@@H](Cc1ccc2ccccc2c1)C(=O)O; AEF = NCCOc1ccc(C[C@H](N)C(=O)O)cc1; Cit = NC(=O)NCCC[C@H](N)C(=O)O; Pen = CC(C)(S)[C@H](N)C(=O)O; αMeK = C[C@](N)(CCCCN)C(=O)O; Aib = CC(C)(N)C(=O)O; βAla = NCCC(=O)O

T1: IL-23R (Homo sapiens, UniProt Q5VWK5)
T1 sequence (Q5VWK5 24-629): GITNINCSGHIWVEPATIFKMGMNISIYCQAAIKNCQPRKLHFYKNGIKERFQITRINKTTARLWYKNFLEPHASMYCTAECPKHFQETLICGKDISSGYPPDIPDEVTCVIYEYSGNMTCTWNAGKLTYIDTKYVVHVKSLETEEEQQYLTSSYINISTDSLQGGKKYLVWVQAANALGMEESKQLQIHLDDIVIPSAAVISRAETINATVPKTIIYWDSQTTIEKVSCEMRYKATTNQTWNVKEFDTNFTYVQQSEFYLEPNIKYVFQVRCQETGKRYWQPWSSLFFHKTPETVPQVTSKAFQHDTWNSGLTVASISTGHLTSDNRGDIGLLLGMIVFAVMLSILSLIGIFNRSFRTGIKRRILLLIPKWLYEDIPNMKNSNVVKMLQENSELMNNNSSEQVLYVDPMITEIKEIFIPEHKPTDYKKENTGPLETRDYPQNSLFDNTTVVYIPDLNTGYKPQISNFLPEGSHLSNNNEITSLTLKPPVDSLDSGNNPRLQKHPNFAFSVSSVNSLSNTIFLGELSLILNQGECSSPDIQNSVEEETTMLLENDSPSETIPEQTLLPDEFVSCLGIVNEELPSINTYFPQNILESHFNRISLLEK

T2: IL-23R (human, UniProt Q5VWK5 24-629)
T2 sequence (looked up): T1 sequence (Q5VWK5 24-629)

B1: SEQ ID NO: 28 (peptide)
peptide: XQTXQCXXXENN
modifications: Ac-[Abu]-QT-[W(7-Me)]-QC-[Phe[4-(2-aminoethoxy)]-[2-Nal]-[THP]-ENN-NH2; Abu-Cys thioether
B2: SEQ ID NO: 29 (peptide)
peptide: RXQTXQCXXXKNN
modifications: Ac-[(D)Arg]-[Abu]-QT-[W(7-Me)]-QC-[Phe[4-(2-aminoethoxy)]-[2-Nal]-[THP]-[Lys(Ac)]-NN-NH2; Abu-Cys thioether
B3: SEQ ID NO: 27 (peptide)
peptide: RXQTXQCXXXENN
modifications: Ac-[(D)Arg]-[Abu]-QT-[W(7-Me)]-QC-[Phe[4-(2-aminoethoxy)]-[2-Nal]-[THP]-ENN-NH2; Abu-Cys thioether

Columns and labels:
[1] = SD rat plasma, 37° C., 20 μM
IL-23R [2] = biological target: T1, IL-23R; assay: DB cells IL23R pSTAT3 cell assay (pStat3 HTRF); assay type: cell-based; conditions: Table E3; DB cells, IL-23 0.5 nM, 30 minutes at 37° C.; read-out: pStat3 HTRF (IC50)
How it was run: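 DB cells (5×10E5/well, RPMI-1640 + 10% FBS) stimulated with 0.5 nM final IL-23 plus serially diluted test peptides for 30 min at 37 °C, 5% CO2. Phospho-STAT3 (Tyr705) in lysates measured by HTRF using a two-plate protocol.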

[3] = 20% human fecal homogenate, 37° C., 20 μM
[4] = 20% cynomolgus monkey fecal homogenate, 37° C., 20 μM
Procedure: Fecal homogenate (20%) was prepared by adding 4 mL of growth medium (1 liter contains 2 g peptone water powder, 2 g yeast extract, 0.1 g NaCl, 0.04 g KH2PO4, 0.01 g CaCl2·6H2O, 0.01 g MgSO4·7H2O, 2 mL Tween 80, 0.5 g bile salts, 0.5 g L-cysteine HCl, 2 g NaHCO3, and 10 μL Vitamin K, pH adjusted to 6.8, and sterilized by filtration through a 0.22 μm filter) to every gram of feces (pooled freshly collected human or cynomolgus monkey feces). The suspension was vortexed to break up large clumps, and homogenized using a bead mill homogenizer. Centrifuged the homogenate at 2800×g for 15 min. The supernatant is taken out and used for incubations. DMSO stocks (10 mM) were first prepared for the test compounds. Incubations were performed in an anaerobic chamber conditioned at 37° C. Aliquots of the DMSO solutions were dosed into 1.0 mL aliquots of 20% fecal homogenate, which are pre-warmed to 37° C. The final test compound concentration was 20 μM. At each timepoint (0, 20 min, 1, 3, 6, or 24 hours), 100 μL aliquot of each incubation mixture is taken out and added to separate tubes containing 300 μL of 50% acetonitrile/50% methanol and an internal standard to terminate the reaction. Samples were taken out of the anaerobic chamber and stored at 4° C. until the end of the experiment. After the final timepoint is sampled, the tubes were mixed and then centrifuged at 3,000 rpm for 10 minutes. Aliquots of the supernatant were removed, diluted 1:1 into distilled water containing 0.1% formic acid, and analyzed by LC/MS/MS. Percent remaining at each timepoint was calculated based on the peak area response ratio of test to compound to internal standard. Time 0 was set to 100%, and all later timepoints were calculated relative to time 0. Half-lives were calculated by fitting to a first-order exponential decay equation using Graphpad or Excel.

in vitro = in vitro ADME; parameters: half-life: dose or concentration left out as unconfirmed; conditions: pH 6.8, 37° C., § matrix is 100 fold dilution of standard SIF concentration; for SIF t½: simulated intestinal fluid, pancreatin; for half-life: simulated intestinal fluid (SIF) with pancreatin, read-out: SIF t½ (converted)
Procedure: SIF was prepared by adding 6.8 g of monobasic potassium phosphate and 10.0 g of pancreatin to 1.0 L of water. After dissolution, the pH was adjusted to 6.8 using NaOH. DMSO stocks (2 mM) were first prepared for the test compounds. Aliquots of the DMSO solutions were dosed into 6 individual tubes, each containing 0.5 mL of SIF, which is pre-warmed to 37° C. The final test compound concentration was 20 M. The vials were kept in a benchtop Thermomixer® for the duration of the experiment. At each timepoint (0, 5, 10, 20, 40, 60, or 360 minutes or 24 hours), 1.0 mL of acetonitrile containing 1% formic acid was added to one vial to terminate the reaction. Samples were stored at 4° C. until the end of the experiment. After the final timepoint is sampled, the tubes were mixed and then centrifuged at 3,000 rpm for 10 minutes. Aliquots of the supernatant were removed, diluted 1:1 into distilled water containing internal standard, and analyzed by LCMS/MS. Percent remaining at each timepoint was calculated based on the peak area response ratio of test to compound to internal standard. Time 0 was set to 100%, and all later timepoints were calculated relative to time 0. Half-lives were calculated by fitting to a first-order exponential decay equation using Graphpad.

IL-23R [5] = biological target: T2, IL-23R; assay: cell-based or functional assay

Molecule	t½: Rat Plasma EDTA [1]	IC50 (IL-23R [2])	t½: Human Feces anaerobic [3]	t½: Monkey Feces anaerobic [4]	SIF t½ (in vitro)	half-life (in vitro)	pStat3 HTRF (nM) IC50 (IL-23R [5])
CC(=O)NCCCC[C@H](NC(=O)[C@](C)(CC(C)C)NC(=O)[C@H](Cc1ccc2ccccc2c1)NC(=O)[C@H](Cc1ccc(OCCN)cc1)NC(=O)[C@H]1NC(=O)[C@H](CCC(N)=O)NC(=O)[C@H](Cc2c[nH]c3c(C)cccc23)NC(=O)[C@H]([C@@H](C)O)NC(=O)[C@H](CC(N)=O)NC(=O)[C@@H](NC(C)=O)C(C)(C)SSC1(C)C)C(=O)N[C@@H](C(=O)NCCC(N)=O)[C@H](C)O [compound 218]	1 h	–	–	–	–	–	–
CC(=O)NCCCC[C@H](NC(=O)[C@](C)(CCCCN)NC(=O)[C@H](Cc1ccc2ccccc2c1)NC(=O)[C@H](Cc1ccc(OCCN)cc1)NC(=O)[C@H]1NC(=O)[C@H](CCC(N)=O)NC(=O)[C@H](Cc2c[nH]c3c(C)cccc23)NC(=O)[C@H]([C@@H](C)O)NC(=O)C(C)(C)NC(=O)[C@@H](NC(C)=O)C(C)(C)SSC1(C)C)C(=O)N[C@@H](CC(N)=O)C(=O)NCCC(N)=O [compound 240] (Ac-[Pen][Aib]T[Trp(7-Me)]Q[Pen][AEF][2Nal][αMeK]K(Ac)N[βAla]-NH2; disulfide 1-6)	8 h	10 to 100 nM	4 h	3 h	–	–	–
CC(=O)NCCCC[C@@H]1NC(=O)[C@H](Cc2c[nH]c3c(C)cccc23)NC(=O)[C@H]([C@@H](C)O)NC(=O)[C@H](CC(N)=O)NC(=O)[C@@H](NC(C)=O)C(C)(C)SSC(C)(C)[C@@H](C(=O)N[C@@H](Cc2ccc(OCCN)cc2)C(=O)N[C@@H](Cc2ccc3ccccc3c2)C(=O)N[C@@](C)(CCCCN)C(=O)N[C@@H](CCCCNC(C)=O)C(=O)N[C@@H](CC(N)=O)C(=O)N[C@H](Cc2ccccc2)C(N)=O)NC1=O [compound 258]	>24 h	–	>24 h	>24 h	14 h	–	–
CC(=O)N[C@@H]1C(=O)N[C@@H](CC(N)=O)C(=O)N[C@@H]([C@@H](C)O)C(=O)N[C@@H](Cc2c[nH]c3c(C)cccc23)C(=O)N[C@@H](CCCNC(N)=O)C(=O)N[C@H](C(=O)N[C@@H](Cc2ccc(OCCN)cc2)C(=O)N[C@@H](Cc2ccc3ccccc3c2)C(=O)N[C@@](C)(CCCCN)C(=O)N[C@@H](CCCNC(N)=O)C(=O)NCCC(=O)NCCC(N)=O)C(C)(C)SSC1(C)C [compound 281] (Ac-[Pen]NT[Trp(7-Me)][Cit][Pen][AEF][2Nal][αMeK][Cit][βAla][βAla]-NH2; disulfide 1-6)	>24 h	10 to 100 nM	>24 h	>24 h	14 h	–	–
CC(=O)NCCCC[C@H](NC(=O)[C@](C)(CCCCN)NC(=O)[C@H](Cc1ccc2ccccc2c1)NC(=O)[C@H](Cc1ccc(OCCN)cc1)NC(=O)[C@H]1NC(=O)[C@H](CCCCNC(=O)C(C)(C)N)NC(=O)[C@H](Cc2c[nH]c3c(C)cccc23)NC(=O)[C@H]([C@@H](C)O)NC(=O)[C@H](CC(N)=O)NC(=O)[C@@H](NC(C)=O)C(C)(C)SSC1(C)C)C(=O)N[C@@H](CC(N)=O)C(=O)N[C@H](CC(C)C)C(N)=O [compound 322]	–	–	>24 h	>24 h	–	1 h	–
CC(=O)NCCCC[C@@H]1NC(=O)[C@H](Cc2c[nH]c3c(C)cccc23)NC(=O)[C@H]([C@@H](C)O)NC(=O)[C@H](CCC(N)=O)NC(=O)[C@@H](NC(=O)[C@@H](CCCNC(=N)N)NC(C)=O)CCSC[C@@H](C(=O)N[C@@H](Cc2ccc(OCCN)cc2)C(=O)N[C@@H](Cc2ccc3ccccc3c2)C(=O)N[C@@](C)(CCCCN)C(=O)N[C@@H](CCCCNC(C)=O)C(=O)N[C@@H](CC(N)=O)C(=O)N[C@H](CC(C)C)C(N)=O)NC1=O [compound 325] (Ac-[dR][Abu(4-yl)]QT[Trp(7-Me)]K(Ac)C[AEF][2Nal][αMeK]K(Ac)N[dL]-NH2; thioether 2-7)	–	–	>24 h	22 h	–	2 h	–
B1	–	–	–	–	–	–	< 1 nM
B2	–	–	–	–	–	–	< 1 nM
B3	–	–	–	–	–	–	< 1 nM
